How the values were obtained:
HMEC-1 = assay: Anti-proliferative activity against HMEC1 cells after 3 days by coulter counting method; format: cell-based; conditions: Homo sapiens, HMEC-1, 72 h
HeLa = assay: Anti-proliferative activity against human HeLa cells after 3 days by coulter counting method; format: functional, cell-based; conditions: 72 h
CCRF-CEM = assay: Anti-proliferative activity against human CEM cells after 4 days by coulter counting method; format: functional, cell-based; conditions: 96 h
[1] = Selectivity ratio of IC50 for HMEC1 cells to IC50 for human CEM cells

| SMILES | IC50 (HMEC-1) [µM] | IC50 (HeLa) [µM] | IC50 (CCRF-CEM) [µM] | Ratio IC50 [1] |
| --- | --- | --- | --- | --- |
| C[C@@H]1CC[C@H]2[C@@H](C)C(=O)N[C@@H]3O[C@@]4(C)CC[C@@H]1[C@]32OO4 | > 250 | 147 | 150 |  |
| C[C@@H]1CC[C@H]2[C@@H](C)C(OCCn3nnc4c3CCc3ccccc3-4)O[C@@H]3O[C@@]4(C)CC[C@@H]1[C@]32OO4 (stereo partly drawn) | > 250 | > 250 | 157 |  |
| C[C@H]1[C@H](OC(=O)C2CCc3c(nnn3CCc3c[nH]c4ccccc34)C2)O[C@@H]2O[C@@]3(C)CC[C@H]4[C@H](C)CC[C@@H]1[C@@]24OO3 (stereo partly drawn) | 40 | 12 | 3.9 |  |
| COc1cc(-n2cc(CN3C(=O)[C@H](C)[C@@H]4CC[C@@H](C)[C@@H]5CC[C@@]6(C)OO[C@]54[C@H]3O6)nn2)cc(OC)c1OC | 155 | 19 | 17 | 8 - 50 |
| C[C@@H]1CC[C@H]2[C@@H](C)C(OCCn3nnc4c3C[C@@H]3CC[C@@H]5[C@H](CC[C@]6(C)[C@@H](O)CC[C@@H]56)[C@@]3(C)C4)O[C@@H]3O[C@@]4(C)CC[C@@H]1[C@]32OO4 (stereo partly drawn) | 28 | 16 | 8.9 |  |
| C[C@@H]1CC[C@H]2[C@@H](C)C(=O)N(Cc3cn(C4OC(COCc5ccccc5)[C@H](OCc5ccccc5)[C@@H]4OCc4ccccc4)nn3)[C@@H]3O[C@@]4(C)CC[C@@H]1[C@@]23OO4 (stereo partly drawn) | > 250 | ≥ 250 | > 250 |  |
| C[C@@H]1CC[C@H]2[C@@H](C)C(OCCn3nncc3-c3ccc(Br)c(Br)c3)O[C@@H]3O[C@@]4(C)CC[C@@H]1[C@]32OO4 (stereo partly drawn) | 26 | 11 | 10 |  |
| C[C@@H]1CC[C@H]2[C@@H](C)C(=O)N(Cc3cn(C4CC(OC(=O)c5ccc(Cl)cc5)C(COC(=O)c5ccc(Cl)cc5)O4)nn3)[C@@H]3O[C@@]4(C)CC[C@@H]1[C@@]23OO4 (stereo partly drawn) | 24 | 6.1 | 2.6 |  |
| C[C@H]1[C@H](OC(=O)C2CCc3c(nnn3Cc3ccc4c(c3)OCO4)C2)O[C@@H]2O[C@@]3(C)CC[C@H]4[C@H](C)CC[C@@H]1[C@@]24OO3 (stereo partly drawn) | 35 | 11 | 2.8 |  |
| CC(C)c1cccc(-n2cc(CN3C(=O)[C@H](C)[C@@H]4CC[C@@H](C)[C@@H]5CC[C@@]6(C)OO[C@]54[C@H]3O6)nn2)c1 | 30 | 1.2 | 0.92 | 30 |
| C[C@@H]1CC[C@H]2[C@@H](C)C(OCCn3nnc4c3CCN(Cc3ccccc3)C4)O[C@@H]3O[C@@]4(C)CC[C@@H]1[C@]32OO4 (stereo partly drawn) | 30 | 19 | 20 |  |
| COc1cc2c(cc1OC)-c1nnn(CCOC3O[C@@H]4O[C@@]5(C)CC[C@H]6[C@H](C)CC[C@@H]([C@H]3C)[C@@]46OO5)c1CC2 (stereo partly drawn) | 150 | 36 | 30 |  |
| C=C(C)[C@@H]1CC[C@]2(C(=O)O)CC[C@]3(C)[C@H](CC[C@@H]4[C@@]5(C)Cc6nnn(CCOC7O[C@@H]8O[C@@]9(C)CC[C@H]%10[C@H](C)CC[C@@H]([C@H]7C)[C@@]8%10OO9)c6C(C)(C)[C@@H]5CC[C@]43C)[C@@H]12 (stereo partly drawn) | 121 | 24 | 5 |  |
| C[C@@H]1CC[C@H]2[C@@H](C)C(=O)N(Cc3cn(-c4ccccc4)nn3)[C@@H]3O[C@@]4(C)CC[C@@H]1[C@@]23OO4 | > 250 | 36 | 5.1 | 8 - 50 |
| C[C@@H]1CC[C@H]2[C@@H](C)C(OCCn3nnc4c3CCc3ccc([N+](=O)[O-])cc3-4)O[C@@H]3O[C@@]4(C)CC[C@@H]1[C@]32OO4 (stereo partly drawn) | 160 | 175 | 95 |  |
| C[C@@H]1CC[C@H]2[C@@H](C)C(OCCn3nncc3-c3cccc4ccccc34)O[C@@H]3O[C@@]4(C)CC[C@@H]1[C@]32OO4 (stereo partly drawn) | 24 | 12 | 11 |  |
| COC(=O)Cn1cc(CN2C(=O)[C@H](C)[C@@H]3CC[C@@H](C)[C@@H]4CC[C@@]5(C)OO[C@]43[C@H]2O5)nn1 | > 250 | > 250 | ≥ 250 |  |
| C#CCN1C(=O)[C@H](C)[C@@H]2CC[C@@H](C)[C@@H]3CC[C@@]4(C)OO[C@]32[C@H]1O4 | 241 | 98 | 104 |  |
| C[C@@H]1CC[C@H]2[C@@H](C)C(OCCn3nnc4c3-c3ccccc3CC4)O[C@@H]3O[C@@]4(C)CC[C@@H]1[C@]32OO4 (stereo partly drawn) | 35 | 20 | 21 |  |
| C[C@@H]1CC[C@H]2[C@@H](C)C(=O)N(Cc3cn(-c4ccc(C#N)cc4)nn3)[C@@H]3O[C@@]4(C)CC[C@@H]1[C@@]23OO4 | 26 | 36 | 18 |  |
| C[C@@H]1CC[C@H]2[C@@H](C)C(OCCn3nncc3-c3ccccc3)O[C@@H]3O[C@@]4(C)CC[C@@H]1[C@]32OO4 (stereo partly drawn) | 62 | 37 | 25 |  |
| COc1cc(Cn2nnc3c2CCC(C(=O)O[C@@H]2O[C@@H]4O[C@@]5(C)CC[C@H]6[C@H](C)CC[C@@H]([C@H]2C)[C@@]46OO5)C3)cc(OC)c1OC (stereo partly drawn) | 40 | 21 | 4.3 |  |
| COc1ccc2c(c1)-c1nnn(CCOC3O[C@@H]4O[C@@]5(C)CC[C@H]6[C@H](C)CC[C@@H]([C@H]3C)[C@@]46OO5)c1CC2 (stereo partly drawn) | 105 | 143 | 128 |  |
| COc1cc(-c2cnnn2CCOC2O[C@@H]3O[C@@]4(C)CC[C@H]5[C@H](C)CC[C@@H]([C@H]2C)[C@@]35OO4)ccc1O (stereo partly drawn) | 62 | 23 | 39 |  |
| Cc1ccc(Cn2nnc3c2CCC(C(=O)O[C@@H]2O[C@@H]4O[C@@]5(C)CC[C@H]6[C@H](C)CC[C@@H]([C@H]2C)[C@@]46OO5)C3)cc1 (stereo partly drawn) | 34 | 11 | 2.7 |  |
